Reference: BindingDB's records for doi:10.1021/cb400468c (Massachusetts Institute of Technology, 2013)

Legend:
[1] = target: T1, Gag-Pol polyprotein [484-582,I494L,I497V,V499I,D514N,E519D,R541K,D544E,Q553K,N572D,L573M] (Human immunodeficiency virus, UniProt Q9QBY3, D514N/D544E/E519D/I494L/I497V/L573M/N572D/Q553K/R541K/V499I); experiment: Inhibition Assay
T1 construct: 484-582
Procedure: (§1) HIV protease inhibitor activities were determined by fluorescence resonance energy transfer (FRET) method. Protease substrate, Arg-Glu-(EDANS)-Ser-Gln-Asn-Tyr-Pro-Ile-Val-Gln-Lys(DABCYL)-Arg, was labeled with the energy transfer donor (EDANS) and acceptor (DABCYL) dyes at its two ends to perform FRET. Fluorescence measurements were carried out on an EnVision plate reader (PerkinElmer).

HIV-1 protease = HIV-1 protease (Human immunodeficiency virus, UniProt O90785); experiment: Inhibition Assay
Procedure: as §1

[2] = target: T2, Gag-Pol polyprotein [484-582,I497V,V499I,E519D,G532V,I538V,R541K,D544E,Q553K,V566A,L573M] (Human immunodeficiency virus, UniProt Q9QBY3, D544E/E519D/G532V/I497V/I538V/L573M/Q553K/R541K/V499I/V566A); experiment: Inhibition Assay
T2 construct: 484-582
Procedure: as §1

[3] = target: T3, Gag-Pol polyprotein [484-582,I494L,I497V,V499I,E519D,I534V,R541K,D544E,Q553K,A555V,L573M] (Human immunodeficiency virus, UniProt Q9QBY3, A555V/D544E/E519D/I494L/I497V/I534V/L573M/Q553K/R541K/V499I); experiment: Inhibition Assay
T3 construct: 484-582
Procedure: as §1

[4] = target: T4, Gag-Pol polyprotein [484-582,I497V,V499I,E519D,R541K,D544E,Q553K,A555V,G557S,I568V,L574M,L573M] (Human immunodeficiency virus, UniProt Q9QBY3, A555V/D544E/E519D/G557S/I497V/I568V/L573M/L574M/Q553K/R541K/V499I); experiment: Inhibition Assay
T4 construct: 484-582
Procedure: as §1

[5] = target: HIV WT-A pol protein (wild-type clade A) (Human immunodeficiency virus 1, UniProt P12497); experiment: Drug Susceptibility Assay
Procedure: (§2) Drug susceptibility assays were carried out by Monogram Bioscience against wild-type HIV-1 control and patient-derived strains of wild-type HIV-1 from clades A, B, and C, and two multi-drug-resistant HIV-1 variants.

MDRC4 = MDRC4 (Human immunodeficiency virus, UniProt P12497); experiment: Drug Susceptibility Assay
Procedure: as §2

MDR1 = MDR1 (Human immunodeficiency virus, UniProt P12497); experiment: Drug Susceptibility Assay
Procedure: as §2

[6] = target: HIV WT-C pol protein (wild-type clade C) (Human immunodeficiency virus, UniProt P12497); experiment: Drug Susceptibility Assay
Procedure: as §2

[7] = target: T5, Gag-Pol polyprotein [489-892,N526H,R530K,V566I,I582L,V648I,Q690K,I723V,C750S,T788A,Q795E,T874A,V881I,P882Q] (Human immunodeficiency virus, UniProt P12497, C750S/I582L/I723V/N526H/P882Q/Q690K/Q795E/R530K/T788A/T874A/V566I/V648I/V881I); experiment: Drug Susceptibility Assay
T5 construct: 489-892
Procedure: as §2

[8] = target: T6, Gag-Pol polyprotein [489-892] (Human immunodeficiency virus, UniProt P12497); experiment: Drug Susceptibility Assay
T6 construct: 489-892
Procedure: as §2

| Structure (SMILES) | Ki [1] [nM] | Ki (HIV-1 protease) [nM] | Ki [2] [nM] | Ki [3] [nM] | Ki [4] [nM] | EC50 [5] [nM] | EC50 (MDRC4) [nM] | EC50 (MDR1) [nM] | EC50 [6] [nM] | EC50 [7] [nM] | EC50 [8] [nM] |
| --- | --- | --- | --- | --- | --- | --- | --- | --- | --- | --- | --- |
| COc1ccc(S(=O)(=O)N(CCCc2ccccc2)C[C@@H](O)[C@H](Cc2ccccc2)NC(=O)c2cccc(O)c2)cc1 [3-Hydroxy-N-[(1S,2R)-2-hydroxy-3-[[(4-methoxyphenyl)sulfonyl](3-phenylpropyl)amino]-1-(phenylmethyl)propyl]-benzamide (AF-78)] | 2.54 | 0.437 | 42.9 | 5.89 | 23.8 | – | – | – | – | – | – |
| CC[C@H](C)CN(C[C@@H](O)[C@H](Cc1ccccc1)NC(=O)c1cccc(O)c1)S(=O)(=O)c1ccc(-c2ccno2)s1 [3-Hydroxy-N-[(1S,2R)-2-hydroxy-3-[[[5-(5-isoxazolyl)-2-thienyl]sulfonyl][(2S)-2-methylbutyl]amino]-1-(phenylmethyl)propyl]-benzamide (AF-71)] | 2.95 | 3.33 | 18.2 | 30 | 44.8 | – | – | – | – | – | – |
| CC[C@H](C)[C@H](NC(C)=O)C(=O)N[C@@H](Cc1ccccc1)[C@H](O)CN(CC(C)C)S(=O)(=O)c1ccc(OC)cc1 [(2S,3S)-2-(Acetylamino)-N-[(1S,2R)-2-hydroxy-3-[[(4-methoxyphenyl)sulfonyl](2-methylpropyl)amino]-1-(phenylmethyl)propyl]-3-methyl-pentanamide (AF-68)] | 0.049 | 0.146 | 0.819 | 0.144 | 1.03 | 2.4 | 15.4 | 15.1 | 3 | 1.6 | 3.5 |
| CC[C@H](C)CN(C[C@@H](O)[C@H](Cc1ccccc1)NC(=O)C(NC(C)=O)[C@@H](C)CC)S(=O)(=O)c1ccc2ncsc2c1 (stereo partly drawn) [(2S,3S)-2-(Acetylamino)-N-[(1S,2R)-3-[(6-benzothiazolylsulfonyl)[(2S)-2-methylbutyl]amino]-2-hydroxy-1-(phenylmethyl)propyl]-3-methyl-pentanamide (AG-23)] | 0.028 | 0.021 | 0.376 | 0.092 | 0.048 | 2.3 | 8.7 | 7.2 | 3.5 | 1.9 | 2.7 |
| O=C(N[C@@H](Cc1ccccc1)[C@H](O)CN(CCCc1ccccc1)S(=O)(=O)c1ccc2ncsc2c1)c1cccc(O)c1 [N-[(1S,2R)-3-[(6-Benzothiazolylsulfonyl)(3-phenylpropyl)amino]-2-hydroxy-1-(phenylmethyl)propyl]-3-hydroxy-benzamide (AF-69)] | 2 | 0.07 | 19.2 | 2.27 | 9.96 | – | – | – | – | – | – |
| O=C(N[C@@H](Cc1ccccc1)[C@H](O)CN(CC1CCCCC1)S(=O)(=O)c1ccc2ncsc2c1)c1cccc(O)c1 [N-[(1S,2R)-3-[(6-Benzothiazolylsulfonyl)(cyclohexylmethyl)amino]-2-hydroxy-1-(phenylmethyl)propyl]-3-hydroxy-benzamide (AF-72)] | 0.383 | 0.129 | 1.33 | 4.82 | 2.75 | 48.6 | 165 | 99.1 | 94.6 | 37.9 | 63.7 |
| COc1ccc(S(=O)(=O)N(CC2CCCCC2)C[C@@H](O)[C@H](Cc2ccccc2)NC(=O)c2cccc(O)c2)cc1 [N-[(1S,2R)-3-[(Cyclohexylmethyl)[(4-methoxyphenyl)sulfonyl]amino]-2-hydroxy-1-(phenylmethyl)propyl]-3-hydroxy-benzamide (AF-77)] | 0.49 | 0.546 | 2.04 | 3.4 | 2.47 | 38.4 | 105 | 86.9 | 65.7 | 22.4 | 47.3 |
| CC(C)CN(C[C@@H](O)[C@H](Cc1ccccc1)NC(=O)O[C@H]1CCOC1)S(=O)(=O)c1ccc(N)cc1 [VX-478] | – | – | – | – | – | 2.6 | 17.5 | 15.6 | 3.7 | 1.8 | 3 |
